In patent US12558357B2, “Tetrahydroquinazoline derivatives as selective cytotoxic agents” (Merck Sharp & Dohme LLC, priority 2020, dated 2026) one finds EC50 data, which are given here for twelve compounds.

In this assay the test system is PBMCs infected with VSV-G pseudotyped HIV virus (VSV-G/pNLG1-P2A-ΔEnv). Kind of assay: cells. Particulars: Homo sapiens, PBMC, read-out: EC50 (HIV-TACK cell kill activity). Format: cell-based, human.
As a reminder, the EC50 is the midpoint of the concentration-response curve. In the case of `Nc1c(Cl)ncn(Cc2cc3c(cc2Cl)[C@@](C#CC2CC2)(C(F)(F)F)NC(=O)N3)c1=O` [Example 11, (S)-7-((5-amino-4-chloro-6-oxopyrimidin-1(6H)-yl)methyl)-6-chloro-4-(cyclopropylethynyl)-4-(trifluoromethyl)-3,4-dihydroquinazolin-2(1H)-one], the EC50 is 33 nM. Turning to `Nc1nccn(Cc2c(F)cc3c(c2F)NC(=O)N[C@]3(C#CC2CC2)C(F)(F)F)c1=O` [Example 20, (S)-7-((3-amino-2-oxopyrazin-1(2H)-yl)methyl)-4-(cyclopropylethynyl)-6,8-difluoro-4-(trifluoromethyl)-3,4-dihydroquinazolin-2(1H)-one], the 50% effective concentration (EC50) is 47 nM. Take `Nc1c(C(F)(F)F)ncn(Cc2ccc3c(c2)NC(=O)N[C@]3(C#CC2CC2)C(F)(F)F)c1=O` [Example 33, (S)-7-((5-amino-6-oxo-4-(trifluoromethyl)pyrimidin-1(6H)-yl)methyl)-4-(cyclopropylethynyl)-4-(trifluoromethyl)-3,4-dihydroquinazolin-2(1H)-one]: the EC50 worked out at 126 nM. Regarding `CC(F)(F)[C@@]1(C#CC2CC2)NC(=O)Nc2cc(Cn3cnccc3=O)c(F)cc21` [Example 4, (S)-4-(cyclopropylethynyl)-4-(1,1-difluoroethyl)-6-fluoro-7-((6-oxopyrimidin-1(6H)-yl)methyl)-3,4-dihydroquinazolin-2(1H)-one], the EC50 is 16 nM. The result for `O=C1Nc2cc(Cn3cnc(C4CC4)cc3=O)ccc2[C@@](C#CC2CC2)(C(F)(F)F)N1` [Example 22, (S)-7-((4-cyclopropyl-6-oxopyrimidin-1(6H)-yl)methyl)-4-(cyclopropylethynyl)-4-(trifluoromethyl)-3,4-dihydroquinazolin-2(1H)-one] reads 288 nM; that for `COCc1cc(=O)n(Cc2cc3c(cc2Cl)[C@@](C#CC2CC2)(C(C)(F)F)NC(=O)N3)cn1` [Example 19, (S)-6-chloro-4-(cyclopropylethynyl)-4-(1,1-difluoroethyl)-7-((4-(methoxymethyl)-6-oxopyrimidin-1(6H)-yl)methyl)-3,4-dihydroquinazolin-2(1H)-one], 14 nM. The result for `O=C1Nc2c(cc(F)c(Cn3cnccc3=O)c2F)[C@@](C#CC2CC2)(C(F)(F)F)N1` [Example 49, (S)-4-(cyclopropylethynyl)-6,8-difluoro-7-((6-oxopyrimidin-1(6H)-yl)methyl)-4-(trifluoromethyl)-3,4-dihydroquinazolin-2(1H)-one] reads 96 nM.

Regarding `COc1ccn(Cc2cc3c(cc2F)[C@@](C#CC2CC2)(C(C)(F)F)NC(=O)N3)c(=O)c1` [Example 84, (S)-4-(cyclopropylethynyl)-4-(1,1-difluoroethyl)-6-fluoro-7-((4-methoxy-2-oxopyridin-1(2H)-yl)methyl)-3,4-dihydroquinazolin-2(1H)-one], the 50% effective concentration (EC50) turned out to be 30 nM. For `N#Cc1ncn(Cc2cc3c(cc2F)[C@@](C#CC2CC2)(C(F)(F)F)NC(=O)N3)c(=O)c1N` [Example 69, (S)-5-amino-1-((4-(cyclopropylethynyl)-6-fluoro-2-oxo-4-(trifluoromethyl)-1,2,3,4-tetrahydroquinazolin-7-yl)methyl)-6-oxo-1,6-dihydropyrimidine-4-carbonitrile], the EC50 came to 29 nM.

Take `N#Cc1cc2c(cc1Cn1cnccc1=O)NC(=O)NC2(C#CC1CC1)C(F)(F)F` (single isomer, unassigned) [Example 75]: the EC50 came to 221 nM. Regarding `CN1C(=O)Nc2cc(Cn3cnccc3=O)ccc2[C@@]1(C#CC1CC1)C(F)(F)F` [Example 73, (S)-4-(cyclopropylethynyl)-3-methyl-7-((6-oxopyrimidin-1(6H)-yl)methyl)-4-(trifluoromethyl)-3,4-dihydroquinazolin-2(1H)-one], the EC50 was found to be 275 nM. The result for `Cc1cc(=O)n(Cc2cc3c(cc2Cl)[C@@](C#CC2CC2)(C(C)(F)F)NC(=O)N3)cn1` [Example 18, (S)-6-chloro-4-(cyclopropylethynyl)-4-(1,1-difluoroethyl)-7-((4-methyl-6-oxopyrimidin-1(6H)-yl)methyl)-3,4-dihydroquinazolin-2(1H)-one] reads 15 nM.
